The source of these data is patent publication US4695576A, “L-N-n-propylpipecolic acid-2,6-xylidide” (priority 1985, dated 1987).

For one series, the system named is ulnar volar nerves. As to the kind of experiment: Finger blockade, digital nerve blocks in man. It counts as in vivo. To be noted: for Time of onset, finger blockade: time from injection to complete analgesia. The protocol: ^2 Digital nerve blocks in man. The test solutions were injected to
block the ulnar volar nerves on the 2nd and 4th fingers of the same
volunteers who had participated in the intracutaneous wheal tests
described above. The tests were carried out in a double blind fashion in
rotating system, so that each solution was used with equal frequency on
each of the blocked fingers. A total of for injections 1.0 ml per
injection, was done in each subject. One week later the procedure was
repeated in the same subjects using the remaining test solutions. This
method has been described by Dhuner et al. (1972) (for citation see Table
2 footnote 1). To measure the efficacy and duration of the blocks, the
individual fingers were pricked rapidly 10 times with a needle algesimete
and the number of painful pricks noted. Each finger was tested every five
minutes until complete recovery. The time of complete anesthesia has been
called "duration of anesthesia".
*i.e. the time from injection to complete analgesia?
**i.e. the number of successful anesthesias of total number of
anesthesias performed (no anesthesia is possible if the ulnar volar nerve
are not contacted by the anesthetic).

For series [1], the system named is tissue. As to the kind of experiment: Tissue toxicity limits (Trypan blue test, threshold of tissue irritancy). The series is classed as in vivo. Conditions: in vivo. From the text: The toxicity of the homologous series of N-alkylpipecolic acid-2,6-xylidides increases step wise and quickly with the lengthening of the alkyl chain. This is manifest from Table 1 set forth below, which compares racemic mixtures of alkyl homologues having from 1 to 5 carbon atoms.
*Trypan blue test; Hoppe et al. (1950), 39, 147-151 "Use of Trypan Blue
and Rabbit Eye Tests For Irritation", J. Amer. Pharm. Assoc. (Scient.
Ed.), the values are approximate threshold values of tissue irritancy.

In series [2] the test system is peripheral nerve endings of the epidermis. The experiment in a line: Intracutaneous wheals, infiltration anesthesia on forearms of man. It counts as in vivo. To be noted: 12 healthy volunteers, pinprick. From the text:
By use of intracutaneous wheals it is possible to measure the analgesic effect of an anesthetic on the peripheral nerve endings of the epidermis.
This technique gives information about:
(1) The duration of anesthesia.
^1 Infiltration anesthesia on forearms of man. The test solutions wer
injected intracutaneously on the dorsum of the forearms of 12 healthy
volunteers, 20-25 years old. Three wheals were made on each arm in a
rotating system in a doublebind fashion. The local anesthetic effect was
tested using a pinprick technique. The "duration of anesthesia" was
defined as the time during which none out of six pinpricks into the wheal
was felt. The method has been described by Dhuner et al. (1972). […]

Series [3] can be described thus: Anesthetic activity/potency comparison. The series is classed as in vivo. Conditions: comparison within homologous series.
A further series relates to skin. The experiment in a line: Skin temperature measurements within intracutaneous wheals. The series is classed as in vivo, man. To be noted: for Temperature Difference (T1 wheal vs T2 controls) / T1 Intracutaneous Wheal temperature: HCl-salt, 10 minutes after injection; for T1 Intracutaneous Wheal temperature: mean of 6 wheals. The method, then: The mean value of 6 wheals for each substance forms the basis for the values. The control values, however, represent the mean value obtained from 4 different sites measured outside the wheals 90 degrees apart and 2 centimeters from the wheal's center.
In the temperature measurements, an Oriel temperature apparatus* has been used. This is battery driven and is connected to a detector (diameter, 2.5 mm) and has an accuracy of ±0.1° C. The temperature of the skin is measured by pressing the detector against the skin with a pressure of 100 grams. It is retained against the skin until a constant temperature is obtained.
In Table 4, T1 is the measurement obtained at the center of the wheal, and T2 is the average of four measurements taken 90 degrees apart outside of the wheal and within 2 centimeters of the wheal's center.

Series [4] relates to tissue. Conditions: in vivo; cited from earlier work.

Turning to `Cc1cccc(C)c1NC(=O)C1CCCCN1C` (racemic) [1 R, N--methylpipecolic acid-2,6-xylidide], in the series on ulnar volar nerves (Concentration 1.0%), the “Analgesia-duration, finger blockade” value came out at 102 ± 22 min; the “Frequency (successful anesthesias of total performed)” value (“Frequency” below) is 13/13; the “Time of onset, finger blockade” value turned out to be 7 ± 2 min. Moreover, the “Tissue toxicity limits in %” value in the series with tissue [1] is listed as 3.5%. Besides, the “Analgesia-duration, intracutaneous wheals” value in series [2] (Conc. 0.5%) worked out at 65 ± 9 min.

In the case of `Cc1cccc(C)c1NC(=O)[C@H]1CCCCN1C` [1 D], in the series on ulnar volar nerves (Concentration 1.0%), the “Analgesia-duration, finger blockade” value turned out to be 71 ± 13 min; the “Frequency” value is recorded as 9/13; the “Time of onset, finger blockade” value was 7 ± 2 min. Besides, in series [2] (Conc. 0.5%), the “Analgesia-duration, intracutaneous wheals” value is 53 ± 8 min.

For the compound `Cc1cccc(C)c1NC(=O)[C@@H]1CCCCN1C` [1 L], in the series on ulnar volar nerves (Concentration 1.0%), the “Analgesia-duration, finger blockade” value came out at 124 ± 21 min; the “Frequency” value is recorded as 11/12; the “Time of onset, finger blockade” value worked out at 7 ± 3 min. Further, in series [2] (Conc. 0.5%), the “Analgesia-duration, intracutaneous wheals” value amounted to 68 ± 11 min.

As for `CCN1CCCC[C@@H]1C(=O)Nc1c(C)cccc1C` [2 D], in the series with ulnar volar nerves (Concentration 0.5%), the “Analgesia-duration, finger blockade” value was 112 ± 21 min; the “Frequency” value is 10/13; the “Time of onset, finger blockade” value was 9 ± 3 min. For the same compound, the “Analgesia-duration, intracutaneous wheals” value in series [2] (Conc. 0.25%) came to 58 ± 11 min.

Take `CCN1CCCC[C@H]1C(=O)Nc1c(C)cccc1C` [2 L]: in the series on ulnar volar nerves (Concentration 0.5%), the “Analgesia-duration, finger blockade” value amounted to 141 ± 18 min; the “Frequency” value is 11/13; the “Time of onset, finger blockade” value was 9 ± 2 min.

Consider `CCCN1CCCC[C@@H]1C(=O)Nc1c(C)cccc1C` [3 D], for which, in the series on ulnar volar nerves (Concentration 0.25%), the “Analgesia-duration, finger blockade” value was 175 ± 21 min; the “Frequency” value was 7/8; the “Time of onset, finger blockade” value was found to be 14 ± 3 min. In series [2] (Conc. 0.25%), the “Analgesia-duration, intracutaneous wheals” value was determined as 81 ± 14 min.

As to `CCCN1CCCCC1C(=O)Nc1c(C)cccc1C` (stereo not drawn) [3 R, N--n-propylpipecolic acid 2,6-xylidide], in the series on ulnar volar nerves (Concentration 0.25%), the “Analgesia-duration, finger blockade” value came to 263 ± 31 min; the “Frequency” value is on record as 9/10; the “Time of onset, finger blockade” value amounted to 10 ± 1 min. The “anesthetic effect” value in series [3] is “so far below that of the racemic Bupivacaine”. Further, the “Tissue toxicity limits in %” value in the series on tissue [1] worked out at 1.5%. In series [2] (Conc. 0.25%), the “Analgesia-duration, intracutaneous wheals” value is 84 ± 15 min. Also, in the series on skin (Conc. 0.25%), the “Temperature Difference (T1 wheal vs T2 controls)” value was -0.1 °C and the “T1 Intracutaneous Wheal temperature” value worked out at 33.1 °C. Further, the “effect on temperature over the wheal” value with skin (comparison with lidocaine + adrenaline) is on record as “practically no change in temperature”.

Take `CCCCN1CCCC[C@@H]1C(=O)Nc1c(C)cccc1C` [4 D]: in the series on ulnar volar nerves (Concentration 0.25%), the “Analgesia-duration, finger blockade” value was 243 ± 38 min; the “Frequency” value is reported as 14/20; the “Time of onset, finger blockade” value worked out at 15 ± 4 min. The “Analgesia-duration, intracutaneous wheals” value in series [2] (Conc. 0.25%) turned out to be 75 ± 11 min.

For `CCCCN1CCCC[C@H]1C(=O)Nc1c(C)cccc1C` [4 L], in the series with ulnar volar nerves (Concentration 0.25%), the “Analgesia-duration, finger blockade” value amounted to 259 ± 37 min; the “Frequency” value is 13/20; the “Time of onset, finger blockade” value turned out to be 13 ± 3 min. For the same compound, the “Analgesia-duration, intracutaneous wheals” value in series [2] (Conc. 0.25%) was determined as 76 ± 10 min.

Turning to `CCCCCN1CCCC[C@@H]1C(=O)Nc1c(C)cccc1C` [5 D], in the series on tissue [4], the tissue irritation result is “irritating”.

Take `CCCCCN1CCCC[C@H]1C(=O)Nc1c(C)cccc1C` [5 L]: the tissue irritation entry with tissue [4] is “irritating”.

With `Cc1cccc(C)c1NC(=O)C1CCCCN1CCO` (stereo not drawn) [R--N--2-hydroxyethyl-pipecolic acid-2,6-xylidide], in the series on skin (Conc. 1.0%), the “Temperature Difference (T1 wheal vs T2 controls)” value was “+0.5 °C” and the “T1 Intracutaneous Wheal temperature” value worked out at 31.2 °C.
